Results taken from ChEMBL document CHEMBL1201862, “PubChem BioAssay data set” (2004).
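Grown in 96-well plates, cells were treated for 48 hours with each compound at five concentrations. Insufficient inhibition: endpoint recorded as highest concentration tested. GI50 = concentration required for 50% inhibition of growth.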 Activity calls are given as the source filed them. No stated cut-off is given here; in the data, active = GI50 up to about 1.1 µM and inactive = higher.

Experiments:
Assay in all cases: NCI anticancer screen, dose series, 48 h
DU-145 = tested on: DU-145
HCT-116 = tested on: HCT-116
HL-60 = tested on: HL-60
LOX IMVI = tested on: LOX IMVI
M14 = tested on: M14
MCF7 = tested on: MCF7
MDA-N = tested on: MDA-N
MOLT-4 = tested on: MOLT-4
NCI-H226 = tested on: NCI-H226
NCI-H460 = tested on: NCI-H460
NCI-H522 = tested on: NCI-H522
PC-3 = tested on: PC-3
SF-295 = tested on: SF-295
SK-MEL-28 = tested on: SK-MEL-28
SK-MEL-2 = tested on: SK-MEL-2
T47D = tested on: T47D
TK-10 = tested on: TK-10
UACC-257 = tested on: UACC-257
SF-268 = tested on: SF-268
SR = tested on: SR

SMILES | GI50 (DU-145) | GI50 (HCT-116) | GI50 (HL-60) | GI50 (LOX IMVI) | GI50 (M14) | GI50 (MCF7) | GI50 (MDA-N) | GI50 (MOLT-4) | GI50 (NCI-H226) | GI50 (NCI-H460) | GI50 (NCI-H522) | GI50 (PC-3) | GI50 (SF-295) | GI50 (SK-MEL-28) | GI50 (SK-MEL-2) | GI50 (T47D) | GI50 (TK-10) | GI50 (UACC-257) | GI50 (SF-268) | GI50 (SR)
O=C1NC(=O)C(C(c2ccc(Cl)cc2)C2C(=O)NC(=O)NC2=O)C(=O)N1.c1ccncc1 | > 100 µM (inactive) | > 100 µM (inactive) | > 100 µM (inactive) | > 100 µM (inactive) | > 100 µM (inactive) | > 100 µM (inactive) | > 100 µM (inactive) | > 100 µM (inactive) | > 100 µM (inactive) | > 100 µM (inactive) | > 100 µM (inactive) | > 100 µM (inactive) | > 100 µM (inactive) | > 100 µM (inactive) | > 100 µM (inactive) | > 100 µM (inactive) | > 100 µM (inactive) | > 100 µM (inactive) | – | –
Cc1c2c(n3c(nc4ccccc43)c1C#N)NCC2 | > 10 µM (inactive) | > 10 µM (inactive) | > 10 µM (inactive) | > 10 µM (inactive) | > 10 µM (inactive) | > 10 µM (inactive) | > 10 µM (inactive) | > 10 µM (inactive) | > 10 µM (inactive) | > 10 µM (inactive) | – | > 10 µM (inactive) | > 10 µM (inactive) | > 10 µM (inactive) | – | > 10 µM (inactive) | > 10 µM (inactive) | > 10 µM (inactive) | > 10 µM (inactive) | > 10 µM (inactive)
COc1ncc(C#CC(=O)c2ccccc2)c(OC)n1 | 8.07 µM (inactive) | 4.95 µM (inactive) | 1.23 µM (inactive) | 0.815 µM (active) | 2.22 µM (inactive) | 0.378 µM (active) | 1.71 µM (inactive) | 0.679 µM (active) | 2.07 µM (inactive) | 13.4 µM (inactive) | 1.27 µM (inactive) | 1.89 µM (inactive) | 16.6 µM (inactive) | 5.11 µM (inactive) | 5.07 µM (inactive) | 5.83 µM (inactive) | 1.67 µM (inactive) | 5.64 µM (inactive) | 10.4 µM (inactive) | –
Cc1ccccc1NC(=O)/C(C#N)=N\Nc1[nH]cnc1C(N)=O | 2.79 µM (inactive) | 4.37 µM (inactive) | > 100 µM (inactive) | – | 2.66 µM (inactive) | 21.6 µM (inactive) | 12.9 µM (inactive) | 2.88 µM (inactive) | 41.4 µM (inactive) | 9.33 µM (inactive) | 18 µM (inactive) | 4.44 µM (inactive) | 9.82 µM (inactive) | 28.7 µM (inactive) | 1.18 µM (inactive) | 25.9 µM (inactive) | 3.08 µM (inactive) | 15.2 µM (inactive) | 4.11 µM (inactive) | –
O=c1[nH]nc(Cc2ccccc2)n1/N=C/c1ccc(/C=N/n2c(Cc3ccccc3)n[nH]c2=O)cc1 | > 100 µM (inactive) | > 100 µM (inactive) | 40.5 µM (inactive) | > 100 µM (inactive) | > 100 µM (inactive) | > 100 µM (inactive) | > 100 µM (inactive) | 19.4 µM (inactive) | > 100 µM (inactive) | > 100 µM (inactive) | > 100 µM (inactive) | > 100 µM (inactive) | 77.3 µM (inactive) | > 100 µM (inactive) | > 100 µM (inactive) | > 100 µM (inactive) | 54 µM (inactive) | > 100 µM (inactive) | > 100 µM (inactive) | –
C=C(C)CCC(O)[C@](C)(O)[C@H]1[C@H](O)C[C@@]2(C)[C@@H]3CCc4c(cc(OC5OC(CO)C(O)C(O)C5O)c(O)c4C)C3(C)C(=O)C[C@]12C (stereo not given in full) | > 100 µM (inactive) | > 100 µM (inactive) | – | > 100 µM (inactive) | > 100 µM (inactive) | > 100 µM (inactive) | > 100 µM (inactive) | > 100 µM (inactive) | > 100 µM (inactive) | > 100 µM (inactive) | > 100 µM (inactive) | > 100 µM (inactive) | > 100 µM (inactive) | > 100 µM (inactive) | > 100 µM (inactive) | > 100 µM (inactive) | > 100 µM (inactive) | > 100 µM (inactive) | > 100 µM (inactive) | > 100 µM (inactive)
CCOC(=O)C(=CNC(=S)N/N=C1\C(=O)Nc2ccccc21)C(=O)OCC | > 100 µM (inactive) | > 100 µM (inactive) | 31 µM (inactive) | > 100 µM (inactive) | > 100 µM (inactive) | 92.9 µM (inactive) | > 100 µM (inactive) | 84.7 µM (inactive) | > 100 µM (inactive) | 47.8 µM (inactive) | – | > 100 µM (inactive) | > 100 µM (inactive) | > 100 µM (inactive) | > 100 µM (inactive) | > 100 µM (inactive) | 59.2 µM (inactive) | > 100 µM (inactive) | 43.8 µM (inactive) | 69.3 µM (inactive)
